Experimental data reported in article PMC6222781, “Structural Optimization of Foldamer-Dendrimer Conjugates as Multivalent Agents against the Toxic Effects of Amyloid Beta Oligomers” (Molecules : A Journal of Synthetic Chemistry and Natural …, 2018).
Read-outs that look alike come from different tables or passages of the source.

Target: T1, Aβ oligomers (Homo sapiens, UniProt P05067)
T1 construct: Ser^26 depsipeptide iso-Aβ (1–42) was used; made in house; host or cells: chemical peptide synthesis (no expression host)
T1 sequence (P05067 672-713 limits assumed): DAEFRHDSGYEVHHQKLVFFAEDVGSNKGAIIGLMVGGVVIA
Experiment: Isothermal titration calorimetry (ITC) binding to Aβ oligomers
Conditions: PBS pH 7.4, 285 K, Aβ 100 µM in cell, ligand 250 µM in syringe, two independent site model
Protocol: The binding affinities of 2b–2i to Aβ oligomers were tested in ITC experiments.
In this work, Ser^26 depsipeptide iso-Aβ (1–42) was used, which was synthesized and purified as described previously. The lyophilized iso-Aβ (1–42) was dissolved in MilliQ water to a concentration of 1 mg mL^−1, sonicated for 3 min and the pH was set to 7.0 to initiate an O to N acyl migration, whereby the native sequence can be readily formed. The sample was incubated at room temperature for 10 min. Then the pH was set to 11 and the sample was kept at room temperature for additional 2 h. After the incubation, the Aβ stock solution was aliquoted and stored at −20 °C until use. To obtain Aβ oligomers, the 1 mg mL^−1 aliquot was diluted to a final concentration of 50 μM with 26.67 mM PBS and the pH was set to 7.4 with 1 M HCl. The sample was incubated at 37 °C for 3 h.
Isothermal calorimetric titrations were performed with a Microcal VP-ITC microcalorimeter in pH 7.4 PBS buffer solution. In individual titrations, 10 µL portions of the ligand containing solution were repeatedly injected from the computer-controlled 300-µL microsyringe at intervals of 300 s into the Aβ oligomer solution prepared in the same buffer as the ligand. All measurements were carried out at 285 K. The Aβ concentration in the cell was 100 µM and the total ligand concentration was 250 µM in the syringe and the titration was stopped when the precipitation of the Aβ aggregates became excessive. Control experiments were performed by injecting the ligand into a cell containing buffer with no target, and the heats of dilution were subtracted from those measured in the presence of Aβ. The experimental data were fitted to the two independent site binding models by using a nonlinear least-squares procedure, with ΔHb, ΔHb’, Kd, Kd’ ([…]), n and n’ (number of binding sites for monomer), as adjustable parameters.

[1] = KD, first binding stage, Table 2
[2] = KD, second binding stage, Table 2

CC1(C)[C@H]2C[C@H](NC(=O)C[C@H](CCCNC(=N)N)NC(=O)[C@H]3CCCC[C@@H]3N)[C@@H](C(=O)N[C@H]3CCCC[C@@H]3C(=O)N[C@@H](CC(=O)O)CC(=O)N[C@H]3CCCC[C@@H]3C(=O)NCC(=O)NCC(=O)N[C@@H](CSC3CC(=O)N(CCC(=O)NCCCC[C@H](NC(=O)CCN4C(=O)CC(SC[C@H](NC(=O)CNC(=O)CNC(=O)[C@H]5CCCC[C@@H]5NC(=O)C[C@H](CC(=O)O)NC(=O)[C@H]5CCCC[C@@H]5NC(=O)[C@@H]5[C@@H](NC(=O)C[C@H](CCCNC(=N)N)NC(=O)[C@H]6CCCC[C@@H]6N)C[C@H]6C[C@@H]5C6(C)C)C(N)=O)C4=O)C(=O)NCCCC[C@H](NC(=O)[C@H](CCCCNC(=O)CCN4C(=O)CC(SC[C@H](NC(=O)CNC(=O)CNC(=O)[C@H]5CCCC[C@@H]5NC(=O)C[C@H](CC(=O)O)NC(=O)[C@H]5CCCC[C@@H]5NC(=O)[C@@H]5[C@@H](NC(=O)C[C@H](CCCNC(=N)N)NC(=O)[C@H]6CCCC[C@@H]6N)C[C@H]6C[C@@H]5C6(C)C)C(N)=O)C4=O)NC(=O)CCN4C(=O)CC(SC[C@H](NC(=O)CNC(=O)CNC(=O)[C@H]5CCCC[C@@H]5NC(=O)C[C@H](CC(=O)O)NC(=O)[C@H]5CCCC[C@@H]5NC(=O)[C@@H]5[C@@H](NC(=O)C[C@H](CCCNC(=N)N)NC(=O)[C@H]6CCCC[C@@H]6N)C[C@H]6C[C@@H]5C6(C)C)C(N)=O)C4=O)C(=O)N[C@@H](CCCCNC(=O)CCCC[C@@H]4SC[C@@H]5NC(=O)N[C@@H]54)C(N)=O)C3=O)C(N)=O)[C@@H]1C2 (some centres unmarked) [Compound 2g]
Kd (KD ITC, first binding stage, Table 1): 0.0341 ± 0.01 µM
Kd (KD ITC, second binding stage, Table 1): 0.652 ± 0.158 µM

N=C(N)NCCC[C@@H](CC(=O)N[C@H]1CCCC[C@@H]1C(=O)N[C@H]1CCCC[C@@H]1C(=O)N[C@@H](CC(=O)O)CC(=O)N[C@H]1CCCC[C@@H]1C(=O)NCC(=O)NCC(=O)N[C@@H](CSC1CC(=O)N(CCC(=O)NCCCCC(=O)NCCN(CCNC(=O)CCCCNC(=O)CCN2C(=O)CC(SC[C@H](NC(=O)CNC(=O)CNC(=O)[C@H]3CCCC[C@@H]3NC(=O)C[C@H](CC(=O)O)NC(=O)[C@H]3CCCC[C@@H]3NC(=O)[C@H]3CCCC[C@@H]3NC(=O)C[C@H](CCCNC(=N)N)NC(=O)[C@H]3CCCC[C@@H]3N)C(N)=O)C2=O)CCNC(=O)CCCCNC(=O)CCN2C(=O)CC(SC[C@H](NC(=O)CNC(=O)CNC(=O)[C@H]3CCCC[C@@H]3NC(=O)C[C@H](CC(=O)O)NC(=O)[C@H]3CCCC[C@@H]3NC(=O)[C@H]3CCCC[C@@H]3NC(=O)C[C@H](CCCNC(=N)N)NC(=O)[C@H]3CCCC[C@@H]3N)C(N)=O)C2=O)C1=O)C(N)=O)NC(=O)[C@H]1CCCC[C@@H]1N (some centres unmarked) [Compound 4]
Kd (Table 2, first binding stage, read-out: KD, first binding stage): 0.0185 ± 0.0139 µM
Kd (Table 2, second binding stage, read-out: KD, second binding stage): 0.155 ± 0.131 µM

N=C(N)NCCC[C@@H](CC(=O)N[C@H]1CCCC[C@@H]1C(=O)N[C@H]1CCCC[C@@H]1C(=O)N[C@@H](CC(=O)O)CC(=O)N[C@H]1CCCC[C@@H]1C(=O)NCC(=O)NCC(=O)N[C@@H](CSC1CC(=O)N(CCC(=O)NCCNC(=O)CCN(CCC(=O)NCCNC(=O)CCN2C(=O)CC(SC[C@H](NC(=O)CNC(=O)CNC(=O)[C@H]3CCCC[C@@H]3NC(=O)C[C@H](CC(=O)O)NC(=O)[C@H]3CCCC[C@@H]3NC(=O)[C@H]3CCCC[C@@H]3NC(=O)C[C@H](CCCNC(=N)N)NC(=O)[C@H]3CCCC[C@@H]3N)C(N)=O)C2=O)CCN(CCC(=O)NCCNC(=O)CCN2C(=O)CC(SC[C@H](NC(=O)CNC(=O)CNC(=O)[C@H]3CCCC[C@@H]3NC(=O)C[C@H](CC(=O)O)NC(=O)[C@H]3CCCC[C@@H]3NC(=O)[C@H]3CCCC[C@@H]3NC(=O)C[C@H](CCCNC(=N)N)NC(=O)[C@H]3CCCC[C@@H]3N)C(N)=O)C2=O)CCC(=O)NCCNC(=O)CCN2C(=O)CC(SC[C@H](NC(=O)CNC(=O)CNC(=O)[C@H]3CCCC[C@@H]3NC(=O)C[C@H](CC(=O)O)NC(=O)[C@H]3CCCC[C@@H]3NC(=O)[C@H]3CCCC[C@@H]3NC(=O)C[C@H](CCCNC(=N)N)NC(=O)[C@H]3CCCC[C@@H]3N)C(N)=O)C2=O)C1=O)C(N)=O)NC(=O)[C@H]1CCCC[C@@H]1N (some centres unmarked) [Compound 5]
Kd [1]: 0.0069 ± 0.0014 µM
Kd [2]: 0.281 ± 0.0387 µM

N=C(N)NCCC[C@@H](CC(=O)N[C@H]1CCCC[C@@H]1C(=O)N[C@H]1CCCC[C@@H]1C(=O)N[C@@H](CC(=O)O)CC(=O)N[C@H]1CCCC[C@@H]1C(=O)NCC(=O)NCC(=O)N[C@@H](CSC1CC(=O)N(CCC(=O)NCCNC(=O)CCN(CCNC(=O)CCN(CCC(=O)NCCN(CCC(=O)NCCNC(=O)CCN2C(=O)CC(SC[C@H](NC(=O)CNC(=O)CNC(=O)[C@H]3CCCC[C@@H]3NC(=O)C[C@H](CC(=O)O)NC(=O)[C@H]3CCCC[C@@H]3NC(=O)[C@H]3CCCC[C@@H]3NC(=O)C[C@H](CCCNC(=N)N)NC(=O)[C@H]3CCCC[C@@H]3N)C(N)=O)C2=O)CCC(=O)NCCNC(=O)CCN2C(=O)CC(SC[C@H](NC(=O)CNC(=O)CNC(=O)[C@H]3CCCC[C@@H]3NC(=O)C[C@H](CC(=O)O)NC(=O)[C@H]3CCCC[C@@H]3NC(=O)[C@H]3CCCC[C@@H]3NC(=O)C[C@H](CCCNC(=N)N)NC(=O)[C@H]3CCCC[C@@H]3N)C(N)=O)C2=O)CCN(CCC(=O)NCCN(CCC(=O)NCCNC(=O)CCN2C(=O)CC(SC[C@H](NC(=O)CNC(=O)CNC(=O)[C@H]3CCCC[C@@H]3NC(=O)C[C@H](CC(=O)O)NC(=O)[C@H]3CCCC[C@@H]3NC(=O)[C@H]3CCCC[C@@H]3NC(=O)C[C@H](CCCNC(=N)N)NC(=O)[C@H]3CCCC[C@@H]3N)C(N)=O)C2=O)CCC(=O)NCCNC(=O)CCN2C(=O)CC(SC[C@H](NC(=O)CNC(=O)CNC(=O)[C@H]3CCCC[C@@H]3NC(=O)C[C@H](CC(=O)O)NC(=O)[C@H]3CCCC[C@@H]3NC(=O)[C@H]3CCCC[C@@H]3NC(=O)C[C@H](CCCNC(=N)N)NC(=O)[C@H]3CCCC[C@@H]3N)C(N)=O)C2=O)CCC(=O)NCCN(CCC(=O)NCCNC(=O)CCN2C(=O)CC(SC[C@H](NC(=O)CNC(=O)CNC(=O)[C@H]3CCCC[C@@H]3NC(=O)C[C@H](CC(=O)O)NC(=O)[C@H]3CCCC[C@@H]3NC(=O)[C@H]3CCCC[C@@H]3NC(=O)C[C@H](CCCNC(=N)N)NC(=O)[C@H]3CCCC[C@@H]3N)C(N)=O)C2=O)CCC(=O)NCCNC(=O)CCN2C(=O)CC(SC[C@H](NC(=O)CNC(=O)CNC(=O)[C@H]3CCCC[C@@H]3NC(=O)C[C@H](CC(=O)O)NC(=O)[C@H]3CCCC[C@@H]3NC(=O)[C@H]3CCCC[C@@H]3NC(=O)C[C@H](CCCNC(=N)N)NC(=O)[C@H]3CCCC[C@@H]3N)C(N)=O)C2=O)CCC(=O)NCCNC(=O)CCN2C(=O)CC(SC[C@H](NC(=O)CNC(=O)CNC(=O)[C@H]3CCCC[C@@H]3NC(=O)C[C@H](CC(=O)O)NC(=O)[C@H]3CCCC[C@@H]3NC(=O)[C@H]3CCCC[C@@H]3NC(=O)C[C@H](CCCNC(=N)N)NC(=O)[C@H]3CCCC[C@@H]3N)C(N)=O)C2=O)C1=O)C(N)=O)NC(=O)[C@H]1CCCC[C@@H]1N (some centres unmarked) [Compound 6]
Kd [1]: 0.069 ± 0.012 µM
Kd [2]: 0.193 ± 0.0305 µM
